The values below come from ChEMBL document CHEMBL6096636 (Bioorg Med Chem, 2024).

A word on the IC50: it is the midpoint of a concentration-inhibition curve. One may read the AUC(0-inf) as total exposure, with the tail of the curve extrapolated. A low value points to low exposure.

Data set [1] can be described thus: Metabolic stability in mouse liver microsomes assessed as clearance measured upto 45 mins in presence of NADPH by LC-MS/MS analysis. The format is ADME, Microsome. Conditions: read-out: CLH; call rule not given here. On the technique in general: Liver microsomes are vesicles of endoplasmic reticulum, rich in cytochrome P450 enzymes.
The subject of data set [2] is Plasmodium falciparum. As to the kind of experiment: Antimalarial activity against sulfadoxine-pyrimethamine and mefloquine resistant Plasmodium falciparum clinical isolate CP286 assessed as inhibition of growth incubated for 72 hrs by SYBR green I based assay. The format is functional, organism-based.
The subject of data set [3] is Plasmodium falciparum. As to the kind of experiment: microbe, parasite or virus in culture. To be noted: Dd2, 72 h.
Description: Antimalarial activity against erythrocytic stage of chloroquine-resistant Plasmodium falciparum Dd2 assessed as inhibition of growth incubated for 72 hrs by SYBR green I based assay
Data set [4] is described as follows: Toxicity in female mouse model infected with erythrocytic stage of Plasmodium yoelli assessed as animal death at 30 mg/kg, ip pre-infected with parasite followed by twice daily compound administration from day 3 to 6. It counts as organism-based. Conditions: in vivo, 96 h, time 4 day.
For another data set, the system named is Plasmodium yoelii. As to the kind of experiment: Antimalarial activity against erythrocytic stage of Plasmodium yoelli infected in female mouse model assessed as reduction in parasitemia at 30 mg/kg, ip pre-infected with parasite followed by twice daily compound administration from day 3 to 6 by microscopic analysis. It counts as functional, organism-based. To be noted: time 4.0 day.

The next data set deals with Histone deacetylase 2 (Homo sapiens, UniProt Q92769). As to the kind of experiment: Inhibition of recombinant human HDAC2 using Ac-peptide as substrate preincubated for 15 mins followed by substrate addition and measured after 60 mins.
Chain of Histone deacetylase 2 (Q92769 whole entry): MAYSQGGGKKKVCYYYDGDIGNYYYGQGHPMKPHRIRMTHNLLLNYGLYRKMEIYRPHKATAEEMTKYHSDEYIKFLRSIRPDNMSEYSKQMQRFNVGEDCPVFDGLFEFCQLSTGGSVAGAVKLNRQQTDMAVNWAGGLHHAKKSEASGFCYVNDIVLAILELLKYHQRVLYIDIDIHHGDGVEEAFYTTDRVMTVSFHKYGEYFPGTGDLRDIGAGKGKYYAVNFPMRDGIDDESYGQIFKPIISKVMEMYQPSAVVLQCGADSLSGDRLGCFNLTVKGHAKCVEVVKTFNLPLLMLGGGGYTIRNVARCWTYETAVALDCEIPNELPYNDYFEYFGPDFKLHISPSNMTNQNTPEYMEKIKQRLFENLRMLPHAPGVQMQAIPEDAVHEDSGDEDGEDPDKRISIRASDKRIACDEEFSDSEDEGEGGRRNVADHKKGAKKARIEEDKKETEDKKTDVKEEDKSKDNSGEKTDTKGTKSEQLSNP
Data set [5] deals with Plasmodium falciparum. As to the kind of experiment: microbe, parasite or virus in culture. Conditions: 72 h.
Description: Antimalarial activity against chloroquine resistant Plasmodium falciparum clinical isolate GB4 assessed as inhibition of growth incubated for 72 hrs by SYBR green I based assay
Data set [6] relates to Plasmodium falciparum. As to the kind of experiment: microbe, parasite or virus in culture. To be noted: 3D7, 72 h.
Description: Antimalarial activity against erythrocytic stage of Plasmodium falciparum 3D7 assessed as inhibition of growth incubated for 72 hrs by SYBR green I based assay
The next data set addresses T1, Histone deacetylase 8 (Homo sapiens, UniProt Q9BY41).
T1 sequence (Q9BY41 whole entry): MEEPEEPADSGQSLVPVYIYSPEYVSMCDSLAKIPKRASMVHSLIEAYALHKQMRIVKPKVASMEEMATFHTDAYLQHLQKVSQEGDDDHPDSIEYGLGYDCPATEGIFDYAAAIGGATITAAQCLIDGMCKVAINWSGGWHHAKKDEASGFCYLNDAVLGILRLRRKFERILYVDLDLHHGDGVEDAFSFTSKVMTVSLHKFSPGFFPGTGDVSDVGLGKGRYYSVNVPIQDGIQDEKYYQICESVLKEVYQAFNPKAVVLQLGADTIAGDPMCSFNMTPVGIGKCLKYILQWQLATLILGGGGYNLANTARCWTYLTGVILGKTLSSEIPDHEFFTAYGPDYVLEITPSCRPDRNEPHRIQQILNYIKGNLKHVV
As to the kind of experiment: Inhibition of recombinant human HDAC8 using Ac-peptide as substrate preincubated for 15 mins followed by substrate addition for 240 mins and measured after 120 mins of trypsin addition.

A short description of data set [7]: AUC (0 to infinity) in female Balb/c mouse at 5 mg/kg, ip measured after 24 hrs by LC-MS/MS analysis. The format is ADME, organism-based. To be noted: in vivo.
A short description of data set [8]: Selectivity index, ratio of IC50 for human HepG2 cells to IC50 for erythrocytic stage of Plasmodium falciparum 3D7. It counts as toxicity, cell-based. Conditions: read-out: Ratio IC50.

`Cc1ccc2c(CN[C@H]3CC[C@@H](Nc4ncc(C(=O)NO)cn4)CC3)cn(C)c2c1.Cl`: the CLint scaled in [1] was 140 mL/min/kg. Further, the IC50 with Plasmodium falciparum [2] stood at 28.4 nM; with Plasmodium falciparum [3], 19.4 nM; on Histone deacetylase 2 it was 11 nM; in the data set with Plasmodium falciparum [5] it was 29.5 nM; in the data set on Plasmodium falciparum [6] it was 11.3 nM; on Histone deacetylase 8, 43 nM. Also, the Activity result is on record as “Toxic” in [4] and “Active; Only Slight Recurrence Of Parasitemia Was Observed Upon Cessation Of Treatment” with Plasmodium yoelii. In [7], this compound displayed an AUC(0-inf) of 853 ng·h/mL. Besides, the selectivity ratio in data set [8] came to 469.
